PubChem BioAssay (NCI)
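Five concentrations, 48 hours, 96-well plates. GI50 marks 50% less growth. Definition used: TGI = concentration required for complete inhibition of growth.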

Experiments:
Experiment in all cases: NCI-60 cell line screen, 48 h
[1] = system: SF-539 CNS
[2] = system: COLO 205 colon
[3] = system: NCI-H522 lung
[4] = system: U251 CNS
[5] = system: BT-549 breast
[6] = system: RXF 393 renal
[7] = system: CAKI-1 renal
[8] = system: SK-MEL-28 melanoma
[9] = system: SNB-19 CNS
[10] = system: A498 renal
[11] = system: SK-MEL-2 melanoma
[12] = system: RPMI-8226 leukemia
[13] = system: UACC-257 melanoma
[14] = system: HOP-92 NSCLC
[15] = system: UACC-62 melanoma
[16] = system: MDA-N
[17] = system: IGROV1 ovarian
[18] = system: NCI/ADR-RES ovarian
[19] = system: OVCAR-3 ovarian
[20] = system: KM12 colon
[21] = system: MOLT-4 leukemia
[22] = system: ACHN renal
[23] = system: HCT-15 colon
[24] = system: SNB-75 CNS
[25] = system: A549 NSCLC
[26] = system: M14 melanoma
[27] = system: OVCAR-4 ovarian
[28] = system: OVCAR-5 ovarian
[29] = system: SW-620 colon
[30] = system: MCF7 breast
[31] = system: SN12C renal
[32] = system: 786-0 renal
[33] = system: SF-268 CNS
[34] = system: SR leukemia
[35] = system: LOX IMVI melanoma
[36] = system: CCRF-CEM leukemia
[37] = system: MALME-3M melanoma
[38] = system: K-562 leukemia
[39] = system: SF-295 CNS
[40] = system: TK-10 renal
[41] = system: SK-MEL-5 melanoma
[42] = system: MDA-MB-231 breast
[43] = system: T-47D breast
[44] = system: SK-OV-3 ovarian
[45] = system: PC-3 prostate
[46] = system: HT29 colon
[47] = system: OVCAR-8 ovarian
[48] = system: NCI-H460 lung
[49] = system: NCI-H226 lung
[50] = system: EKVX NSCLC
[51] = system: DU-145 prostate
[52] = system: NCI-H23 lung
[53] = system: MDA-MB-435
[54] = system: HS 578T breast
[55] = system: HOP-62 NSCLC
[56] = system: HCT-116 colon
[57] = system: HL-60(TB) leukemia
[58] = system: UO-31 renal
[59] = system: HCC-2998 colon

With `NC(Cc1nn[nH]n1)C(=O)O` (stereo unspecified) as the compound, how does the TGI [1] read?
The TGI was over 100 µM.

What about the TGI [2] of the same compound?
Its TGI is over 100 µM.

What about the TGI [3] of the same compound?
Its TGI is over 100 µM.

And the TGI [4]?
Its TGI is over 100 µM.

And the TGI [5]?
Its TGI is over 100 µM.

And the TGI [6]?
Its TGI is over 100 µM.

And the TGI [7]?
The TGI was over 100 µM.

And the TGI [8]?
The TGI was over 100 µM.

What about the TGI [9] of the same compound?
Its TGI is over 100 µM.

And the TGI [10]?
The TGI was over 100 µM.

What about the TGI [11] of the same compound?
The TGI was over 100 µM.

And the TGI [12]?
The TGI was over 100 µM.

What about the TGI [13] of the same compound?
The TGI was over 100 µM.

What about the TGI [14] of the same compound?
Its TGI is over 100 µM.

What about the TGI [15] of the same compound?
Its TGI is over 100 µM.

And the TGI [16]?
The TGI was over 100 µM.

And the TGI [17]?
Its TGI is over 100 µM.

What about the TGI [18] of the same compound?
The TGI was over 100 µM.

And the TGI [19]?
The TGI was over 100 µM.

And the TGI [20]?
The TGI was over 100 µM.

And the TGI [21]?
Its TGI is over 100 µM.

What about the TGI [22] of the same compound?
The TGI was over 100 µM.

What about the TGI [23] of the same compound?
Its TGI is over 100 µM.

And the TGI [24]?
Its TGI is over 100 µM.

And the TGI [25]?
Its TGI is over 100 µM.

What about the TGI [26] of the same compound?
Its TGI is over 100 µM.

And the TGI [27]?
The TGI was over 100 µM.

And the TGI [28]?
Its TGI is over 100 µM.

And the TGI [29]?
The TGI was over 100 µM.

And the TGI [30]?
Its TGI is over 100 µM.

And the TGI [31]?
Its TGI is over 100 µM.

And the TGI [32]?
The TGI was over 100 µM.

And the TGI [33]?
Its TGI is over 100 µM.

What about the TGI [34] of the same compound?
The TGI was over 100 µM.

And the TGI [35]?
Its TGI is over 100 µM.

And the TGI [36]?
The TGI was over 100 µM.

What about the TGI [37] of the same compound?
Its TGI is over 100 µM.

And the TGI [38]?
Its TGI is over 100 µM.

And the TGI [39]?
Its TGI is over 100 µM.

And the TGI [40]?
The TGI was over 100 µM.

And the TGI [41]?
Its TGI is over 100 µM.

And the TGI [42]?
The TGI was over 100 µM.

What about the TGI [43] of the same compound?
The TGI was over 100 µM.

And the TGI [44]?
The TGI was over 100 µM.

And the TGI [45]?
The TGI was over 100 µM.

And the TGI [46]?
The TGI was over 100 µM.

What about the TGI [47] of the same compound?
Its TGI is over 100 µM.

And the TGI [48]?
The TGI was over 100 µM.

What about the TGI [49] of the same compound?
Its TGI is over 100 µM.

And the TGI [50]?
Its TGI is over 100 µM.

What about the TGI [51] of the same compound?
Its TGI is over 100 µM.

What about the TGI [52] of the same compound?
Its TGI is over 100 µM.

And the TGI [53]?
Its TGI is over 100 µM.

What about the TGI [54] of the same compound?
The TGI was over 100 µM.

What about the TGI [55] of the same compound?
Its TGI is over 100 µM.

What about the TGI [56] of the same compound?
The TGI was over 100 µM.

With `O=C(Nc1cccc2nsnc12)c1cc2c(cc1Cl)Sc1nccn1S2(=O)=O` as the compound, how does the TGI [1] read?
Its TGI is 10 µM.

And the TGI [57]?
Its TGI is 3.72 µM.

What about the TGI [2] of the same compound?
Its TGI is 33.3 µM.

And the TGI [3]?
Its TGI is 32.3 µM.

What about the TGI [4] of the same compound?
The TGI was 17.6 µM.

And the TGI [5]?
Its TGI is 36.9 µM.

What about the TGI [6] of the same compound?
The TGI was 18 µM.

And the TGI [7]?
The TGI was 25.7 µM.

And the TGI [8]?
The TGI was 8.86 µM.

And the TGI [9]?
Its TGI is 24.8 µM.

And the TGI [10]?
The TGI was 26.5 µM.

And the TGI [11]?
Its TGI is 26.4 µM.

What about the TGI [12] of the same compound?
Its TGI is 4.96 µM.

What about the TGI [13] of the same compound?
The TGI was 3.49 µM.

What about the TGI [14] of the same compound?
Its TGI is 25.2 µM.

And the TGI [15]?
Its TGI is 17.6 µM.

What about the TGI [16] of the same compound?
Its TGI is 34.3 µM.

And the TGI [17]?
Its TGI is 46.6 µM.

And the TGI [18]?
Its TGI is 42.6 µM.

What about the TGI [19] of the same compound?
Its TGI is 3.47 µM.

What about the TGI [20] of the same compound?
The TGI was 4.65 µM.

What about the TGI [21] of the same compound?
The TGI was over 30.7 µM.

What about the TGI [22] of the same compound?
The TGI was 35.9 µM.

And the TGI [23]?
The TGI was 25.6 µM.

What about the TGI [24] of the same compound?
The TGI was 35.9 µM.

What about the TGI [25] of the same compound?
The TGI was 56.1 µM.

What about the TGI [26] of the same compound?
Its TGI is 42.5 µM.

What about the TGI [27] of the same compound?
The TGI was 15.6 µM.

And the TGI [28]?
The TGI was over 91.6 µM.

What about the TGI [29] of the same compound?
The TGI was over 60.7 µM.

What about the TGI [30] of the same compound?
Its TGI is 3.4 µM.

And the TGI [31]?
Its TGI is 31.1 µM.

And the TGI [32]?
Its TGI is 32 µM.

What about the TGI [33] of the same compound?
The TGI was 20.4 µM.

And the TGI [34]?
The TGI was over 21.8 µM.

And the TGI [35]?
Its TGI is over 63.8 µM.

What about the TGI [36] of the same compound?
The TGI was over 36.6 µM.

What about the TGI [37] of the same compound?
The TGI was over 100 µM.

What about the TGI [58] of the same compound?
The TGI was 4.41 µM.

And the TGI [38]?
The TGI was over 44.5 µM.

What about the TGI [59] of the same compound?
The TGI was 11.7 µM.

What about the TGI [39] of the same compound?
Its TGI is 28.2 µM.

And the TGI [40]?
The TGI was 16.3 µM.

What about the TGI [41] of the same compound?
The TGI was 38.5 µM.

And the TGI [42]?
The TGI was 21.9 µM.

And the TGI [43]?
The TGI was 7.04 µM.

What about the TGI [44] of the same compound?
The TGI was over 100 µM.

What about the TGI [45] of the same compound?
The TGI was 3.64 µM.

And the TGI [46]?
The TGI was 7.67 µM.

And the TGI [47]?
The TGI was 8.94 µM.

What about the TGI [48] of the same compound?
Its TGI is 5.98 µM.

And the TGI [49]?
The TGI was 55.4 µM.

What about the TGI [50] of the same compound?
The TGI was 11.1 µM.

What about the GI50 [51] of the same compound?
Its GI50 is 1.74 µM.

And the TGI [51]?
Its TGI is 3.17 µM.

And the TGI [52]?
The TGI was 25.3 µM.

What about the TGI [53] of the same compound?
Its TGI is 36.5 µM.

What about the TGI [54] of the same compound?
The TGI was over 100 µM.

What about the TGI [55] of the same compound?
The TGI was 4.37 µM.

And the TGI [56]?
Its TGI is 6.97 µM.
